Measured values as given in ChEMBL document CHEMBL1125312, “Highly potent, orally active diester macrocyclic human renin inhibitors” (J Med Chem, 1992).

Experiments:
Rattus norvegicus [1] = experiment: Compound was evaluated for the percentage of feces excretion of radioactivity, by male Sprague-Dawley rats after intravenous administration of compound dose (1 mg/kg) at 0-24 hr; format: ADME, organism-based; conditions: in vivo
Rattus norvegicus [2] = experiment: Cumulative dose excreted after intravenous administration at 3-4 hours in rats; format: ADME, organism-based; conditions: in vivo
Rattus norvegicus [3] = experiment: Cumulative dose excreted after intravenous administration at 0-0.5 hours in rats; format: ADME, organism-based; conditions: in vivo
Rattus norvegicus [4] = experiment: Cumulative dose excreted after intravenous administration at 4-6 hours in rats; format: ADME, organism-based; conditions: in vivo
Rattus norvegicus [5] = experiment: Cumulative dose excreted after intravenous administration at 1.5-2 hours in rats; format: ADME, organism-based; conditions: in vivo
[6] = Cumulative dose excreted after intraduodenal administration at 0.5-1.0 hours in rats; format: ADME, organism-based; conditions: rat, in vivo
Rattus norvegicus [7] = experiment: Compound was evaluated for the percentage of urine excretion of radioactivity, by male Sprague-Dawley rats after oral administration of compound dose (1 mg/kg) at 0-24 hr; format: ADME, organism-based; conditions: in vivo
Rattus norvegicus [8] = experiment: Cumulative dose excreted after intravenous administration at 6-8 hours in rats; format: ADME, organism-based; conditions: in vivo
Rattus norvegicus [9] = experiment: Cumulative dose excreted after intraduodenal administration at 8-24 hours in rats; format: ADME, organism-based; conditions: in vivo, other
Rattus norvegicus [10] = experiment: Cumulative dose excreted after intravenous administration at 2-3 hours in rats; format: ADME, organism-based; conditions: in vivo
[11] = Cumulative dose excreted after intravenous administration at 0.5-1 hours in rats; format: ADME, organism-based; conditions: rat, in vivo
[12] = Cumulative dose excreted after intraduodenal administration at 0-0.5 hours in rats; format: ADME, organism-based; conditions: rat, in vivo
Renin = target: T1, Renin (Homo sapiens, UniProt P00797); experiment: Inhibitory activity against human renin inhibition (at pH 7.4)
T1 sequence (P00797 whole entry): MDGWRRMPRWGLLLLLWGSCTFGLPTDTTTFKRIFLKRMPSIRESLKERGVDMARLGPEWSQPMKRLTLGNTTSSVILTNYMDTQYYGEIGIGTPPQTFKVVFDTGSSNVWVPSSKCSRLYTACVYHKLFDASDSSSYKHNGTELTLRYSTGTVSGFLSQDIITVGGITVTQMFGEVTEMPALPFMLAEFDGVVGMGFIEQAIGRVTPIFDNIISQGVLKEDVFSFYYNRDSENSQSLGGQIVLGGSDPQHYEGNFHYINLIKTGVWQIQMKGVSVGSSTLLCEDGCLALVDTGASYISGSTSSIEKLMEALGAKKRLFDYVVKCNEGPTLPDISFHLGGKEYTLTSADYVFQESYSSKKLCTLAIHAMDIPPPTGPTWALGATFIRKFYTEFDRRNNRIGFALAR

Rattus norvegicus [13] = experiment: Cumulative dose excreted after intravenous administration at 8-24 hours in rats; format: ADME, organism-based; conditions: in vivo
Rattus norvegicus [14] = experiment: Cumulative dose excreted after intraduodenal administration at 4-6 hours in rats; format: ADME, organism-based; conditions: in vivo, other
[15] = Cumulative dose excreted after intraduodenal administration at 6-8 hours in rats; format: ADME, organism-based; conditions: rat, in vivo
Rattus norvegicus [16] = experiment: Compound was evaluated for the percentage of feces excretion of radioactivity, by male Sprague-Dawley rats after oral administration of compound dose (1 mg/kg) at 24-48 hr; format: ADME, organism-based; conditions: in vivo
[17] = Cumulative dose excreted after intraduodenal administration at 2-3 hours in rats; format: ADME, organism-based; conditions: rat, in vivo
Rattus norvegicus [18] = experiment: Compound was evaluated for the percentage of urine excretion of radioactivity, by male Sprague-Dawley rats after oral administration of compound dose (1 mg/kg) at 48-72 hr; format: ADME, organism-based; conditions: in vivo
Rattus norvegicus [19] = experiment: Compound was evaluated for the percentage of urine excretion of radioactivity, by male Sprague-Dawley rats after oral administration of compound dose (1 mg/kg) at 24-48 hr; format: ADME, organism-based; conditions: in vivo
Rattus norvegicus [20] = experiment: Compound was evaluated for the percentage of feces excretion of radioactivity, by male Sprague-Dawley rats after intravenous administration of compound dose (1 mg/kg) at 24-48 hr; format: ADME, organism-based; conditions: in vivo
[21] = Cumulative dose excreted after intraduodenal administration at 3-4 hours in rats; format: ADME, organism-based; conditions: rat, in vivo
[22] = Cumulative dose excreted after intravenous administration at 1.0-1.5 hours in rats; format: ADME, organism-based; conditions: rat, in vivo
Rattus norvegicus [23] = experiment: Compound was evaluated for the percentage of feces excretion of radioactivity, by male Sprague-Dawley rats after oral administration of compound dose (1 mg/kg) at 48-72 hr; format: ADME, organism-based; conditions: in vivo
Rattus norvegicus [24] = experiment: Compound was evaluated for the percentage of urine excretion of radioactivity, by male Sprague-Dawley rats after intravenous administration of compound dose (1 mg/kg) at 0-24 hr; format: ADME, organism-based; conditions: in vivo
Rattus norvegicus [25] = experiment: Compound was evaluated for the percentage of urine excretion of radioactivity, by male Sprague-Dawley rats after intravenous administration of compound dose (1 mg/kg) at 24-48 hr; format: ADME, organism-based; conditions: in vivo
[26] = Cumulative dose excreted after intraduodenal administration at 1.5-2.0 hours in rats; format: ADME, organism-based; conditions: rat, in vivo
[27] = Cumulative dose excreted after intraduodenal administration at 1.0-1.5 hours in rats; format: ADME, organism-based; conditions: rat, in vivo
Rattus norvegicus [28] = experiment: Compound was evaluated for the percentage of feces excretion of radioactivity, by male Sprague-Dawley rats after oral administration of compound dose (1 mg/kg) at 0-24 hr; format: ADME, organism-based; conditions: in vivo

Dose excreted (Rattus norvegicus [1]): 43.5%
Dose excreted (Rattus norvegicus [2]): 46.9%
Dose excreted (Rattus norvegicus [3]): 35.7%
Dose excreted (Rattus norvegicus [4]): 47.5%
Dose excreted (Rattus norvegicus [5]): 45.5%
Dose excreted [6]: 3.3%
Dose excreted (Rattus norvegicus [7]): 3.1%
Dose excreted (Rattus norvegicus [8]): 47.9%
Dose excreted (Rattus norvegicus [9]): 4.7%
Dose excreted (Rattus norvegicus [10]): 46.4%
Dose excreted [11]: 42.7%
Dose excreted [12]: 2.4%
IC50 (Renin): 1.3 nM
Dose excreted (Rattus norvegicus [13]): 48.7%
Dose excreted (Rattus norvegicus [14]): 4.3%
Dose excreted [15]: 4.4%
Dose excreted (Rattus norvegicus [16]): 3.3%
Dose excreted [17]: 4%
Dose excreted (Rattus norvegicus [18]): 0.3%
Dose excreted (Rattus norvegicus [19]): 0.7%
Dose excreted (Rattus norvegicus [20]): 3.5%
Dose excreted [21]: 4.2%
Dose excreted [22]: 44.6%
Dose excreted (Rattus norvegicus [23]): 0.2%
Dose excreted (Rattus norvegicus [24]): 18.5%
Dose excreted (Rattus norvegicus [25]): 0.7%
Dose excreted [26]: 3.9%
Dose excreted [27]: 3.6%
Dose excreted (Rattus norvegicus [28]): 81.7%
Structure (SMILES): O=C1CCC[C@H](CN2CCOCC2)OC(=O)[C@H](O)[C@H](CC2CCCCC2)NC(=O)[C@@H](NC(=O)[C@H](Cc2ccccc2)NC2CN3CCC2CC3)CO1 (some centres undefined)
